Patent US10959428B2, “Hematophagous arthropod repellent composition” (WOOJUNG BIO INC., priority 2017, dated 2021)
“And” between values parts separate entries of the source, which are not always exact repeats. Equal entries are not always repeated.

What was measured:
[1] = system: adult Aedes aegypti; assay: cage-in-arm test, complete protection time (CPT); format: in vivo; conditions: 4 mg, adult Aedes aegypti
Experimental: For determining the repellency of prepared samples against adults of Aedes aegypti and Aedes albopicus, a cage-in-arm test was carried out as a method for exposure to skin. Namely, on a back of the hand of a rubber glove, a hole with diameter of 5 cm was created, and, onto an exposed back of the testees, various samples prepared by dissolution in 100 μl of ethanol were applied, and then the skin test was carried out. The testees were healthy males between the ages of 21 and 40. The control group was treated with 100 μl of ethanol only. Female adults (5 to 8 day old) of Aedes aegypti or Aedes albopicus (250 to 300 mosquitoes) were added to a cage for growing adult mosquitoes (25×25×25 cm^3), and adapted to the indoor conditions for 12 to 24 hours before starting the test. When the upper arm of the control group is exposed for 1 minute and at least 6 mosquitoes sit on the upper arm or show a bloodsucking behavior, it was determined as sufficient biting pressure, and then the repellency test was carried out. […] The time period between the time point with initial treatment of a material and the time point at which 2 or more mosquitoes continuously sit on the treatment area or show the bloodsucking behavior was defined as complete protection time (CPT). Furthermore, for obtaining the repellency with regard to concentration, exposure was made for a constant time period regardless of the above and the repellency was calculated by using the following formula. Accordingly, the effect was compared among each test samples. All tests were carried out in triplicate. Repellency %=(Number of insects showing bloodsucking behavior in non-treatment group−Number of insects showing bloodsucking behavior in treatment group)/Number of insects showing bloodsucking behavior in non-treatment group)×100 <Tick Repellency>

[2] = system: adult Aedes albopicus; assay: cage-in-arm test, repellency and CPT; format: in vivo, Aedes albopictus
Experimental: For determining the repellency of prepared samples against adults of Aedes aegypti and Aedes albopicus, a cage-in-arm test was carried out as a method for exposure to skin. Namely, on a back of the hand of a rubber glove, a hole with diameter of 5 cm was created, and, onto an exposed back of the testees, various samples prepared by dissolution in 100 μl of ethanol were applied, and then the skin test was carried out. The testees were healthy males between the ages of 21 and 40. The control group was treated with 100 μl of ethanol only. Female adults (5 to 8 day old) of Aedes aegypti or Aedes albopicus (250 to 300 mosquitoes) were added to a cage for growing adult mosquitoes (25×25×25 cm^3), and adapted to the indoor conditions for 12 to 24 hours before starting the test. When the upper arm of the control group is exposed for 1 minute and at least 6 mosquitoes sit on the upper arm or show a bloodsucking behavior, it was determined as sufficient biting pressure, and then the repellency test was carried out. With an interval of 30 minutes, by exposing the upper arm, which has been treated with the above composition, for 3 minutes, and, when the adult mosquito sits on the arm for 2 seconds or longer or at least two mosquitoes showing the behavior of mouth injection to skin or direct bloodsucking are found from consecutive tests, the test was stopped. The time period between the time point with initial treatment of a material and the time point at which 2 or more mosquitoes continuously sit on the treatment area or show the bloodsucking behavior was defined as complete protection time (CPT). Furthermore, for obtaining the repellency with regard to concentration, exposure was made for a constant time period regardless of the above and the repellency was calculated by using the following formula. Accordingly, the effect was compared among each test samples. All tests were carried out in triplicate. Repellency %=(Number of insects showing bloodsucking behavior in non-treatment group−Number of insects showing bloodsucking behavior in treatment group)/Number of insects showing bloodsucking behavior in non-treatment group)×100 <Tick Repellency>
For reference, comparison of the mosquito repellency was made by using clove oil as a natural positive control group and DEET as a synthetic positive control group.
To determine the repellency of plant essential oil alone against adult Aedes albopicus and nymphs of Haemaphysalis longicornis, the cage-in-arm test and finger-tip method were carried out, in the same manner as Examples 1-2 and 1-3, with each of 16 kinds of plant essential oil of Table 4.

[3] = system: nymphs of Haemaphysalis longicornis; assay: finger-tip method, tick repellency; format: in vivo
Experimental: By having the outdoor group of Haemaphysalis longicornis collected from the region around Bongdam-Myon, Hwasung-Shi, Kunggi-Do, South Korea as a subject, the repellency against ticks was determined by employing a finger-tip method. In 50 μl of ethanol, each sample was dissolved in an amount of 2 mg, and then treated on the second nodule of a third finger. […] All tests were carried out in triplicate. Repellency %=(Number of insects showing bloodsucking behavior in non-treatment group−Number of insects showing bloodsucking behavior in treatment group)/Number of insects showing bloodsucking behavior in non-treatment group)×100 […]

Structure (SMILES): COc1ccc(C=O)cc1OC [3,4-Dimethoxybenzaldehyde, 3,4-dimethoxybenzaldehyde]
- CPT [1]: 70 min
- CPT ([1]; listed as 3,4-demethoxybenzaldehyde): 70 min
- Repellency (mean ± SE, %) ([2]; 0.03 mg/cm^2, 10 minutes): 100 ± 0%
- Repellency (mean ± SE, %) ([2]; 0.03 mg/cm^2, 30 minutes): 75 ± 7.1%
- Repellency (mean ± SE, %) ([2]; 0.03 mg/cm^2, 60 minutes): 54 ± 4.3%
- Repellency (mean ± SE, %) ([2]; 0.10 mg/cm^2, 10 minutes): 100 ± 0%
- Repellency (mean ± SE, %) ([2]; 0.10 mg/cm^2, 30 minutes): 93 ± 4.3%
- Repellency (mean ± SE, %) ([2]; 0.10 mg/cm^2, 60 minutes): 90 ± 4.1%
- Repellency (mean ± SE, %) ([2]; 0.10 mg/cm^2, 90 minutes): 83 ± 8.8%
- Repellency (mean ± SE, %) ([2]; 0.10 mg/cm^2, 120 minutes): 58 ± 5.5%
- Repellency (mean ± SE, %) ([2]; 0.20 mg/cm^2, 10 minutes): 100 ± 0%
- Repellency (mean ± SE, %) ([2]; 0.20 mg/cm^2, 30 minutes): 100 ± 0%
- Repellency (mean ± SE, %) ([2]; 0.20 mg/cm^2, 60 minutes): 99 ± 2.3%
- Repellency (mean ± SE, %) ([2]; 0.20 mg/cm^2, 90 minutes): 94 ± 4.6%
- Repellency (mean ± SE, %) ([2]; 0.20 mg/cm^2, 120 minutes): 91 ± 1.7%
- Repellency (mean ± SE, %) ([2]; 0.20 mg/cm^2, 150 minutes): 83 ± 2.6%
- Repellency (mean ± SE, %) ([2]; 0.20 mg/cm^2, 180 minutes): 65 ± 6.0%
- Repellency (mean ± SE, %) ([2]; 0.25 mg/cm^2, 10 minutes): 100 ± 0%
- Repellency (mean ± SE, %) ([2]; 0.25 mg/cm^2, 30 minutes): 100 ± 0%
- Repellency (mean ± SE, %) ([2]; 0.25 mg/cm^2, 60 minutes): 100 ± 0%
- Repellency (mean ± SE, %) ([2]; 0.25 mg/cm^2, 90 minutes): 100 ± 0%
- Repellency (mean ± SE, %) ([2]; 0.25 mg/cm^2, 120 minutes): 100 ± 0%
- Repellency (mean ± SE, %) ([2]; 0.25 mg/cm^2, 150 minutes): 95 ± 3.2%
- Repellency (mean ± SE, %) ([2]; 0.25 mg/cm^2, 180 minutes): 58 ± 4.4%
- CPT ([2]; 4 mg, adult Aedes albopicus): 50 min
- Repellency (mean ± SE, %) ([3]; 0.01 mg/cm^2, 15 min.): 100 ± 0%
- Repellency (mean ± SE, %) ([3]; 0.01 mg/cm^2, 30 min.): 100 ± 0%
- Repellency (mean ± SE, %) ([3]; 0.01 mg/cm^2, 60 min.): 98 ± 2.5%
- Repellency (mean ± SE, %) ([3]; 0.01 mg/cm^2, 90 min.): 98 ± 2.5%
- Repellency (mean ± SE, %) ([3]; 0.01 mg/cm^2, 120 min.): 90 ± 5.8%
- Repellency (mean ± SE, %) ([3]; 0.01 mg/cm^2, 150 min.): 95 ± 2.9%
- Repellency (mean ± SE, %) ([3]; 0.01 mg/cm^2, 180 min.): 95 ± 2.9%
- Repellency (mean ± SE, %) ([3]; 0.01 mg/cm^2, 210 min.): 73 ± 10.3%
- Repellency (mean ± SE, %) ([3]; 0.01 mg/cm^2, 240 min.): 65% and 65 ± 2.9%
- Repellency (mean ± SE, %) ([3]; 0.01 mg/cm^2, 270 min.): 43 ± 4.8%
- Repellency (mean ± SE, %) ([3]; 0.02 mg/cm^2, 15 min.): 100 ± 0%
- Repellency (mean ± SE, %) ([3]; 0.02 mg/cm^2, 30 min.): 100 ± 0%
- Repellency (mean ± SE, %) ([3]; 0.02 mg/cm^2, 60 min.): 100 ± 0%
- Repellency (mean ± SE, %) ([3]; 0.02 mg/cm^2, 90 min.): 98 ± 2.5%
- Repellency (mean ± SE, %) ([3]; 0.02 mg/cm^2, 120 min.): 98 ± 2.5%
- Repellency (mean ± SE, %) ([3]; 0.02 mg/cm^2, 150 min.): 100 ± 0%
- Repellency (mean ± SE, %) ([3]; 0.02 mg/cm^2, 180 min.): 98 ± 2.5%
- Repellency (mean ± SE, %) ([3]; 0.02 mg/cm^2, 210 min.): 95 ± 5.0%
- Repellency (mean ± SE, %) ([3]; 0.02 mg/cm^2, 240 min.): 85 ± 2.9%
- Repellency (mean ± SE, %) ([3]; 0.02 mg/cm^2, 270 min.): 63 ± 4.8%
- Repellency (mean ± SE, %) ([3]; 0.02 mg/cm^2, 300 min.): 48 ± 2.5%
- repellency ([3]; 0.02 mg/cm^2 or higher, 4 hours after the treatment): ≥ 78%
- Repellency (mean ± SE, %) ([3]; 0.05 mg/cm^2, 15 min.): 100 ± 0%
- Repellency (mean ± SE, %) ([3]; 0.05 mg/cm^2, 30 min.): 100 ± 0%
- Repellency (mean ± SE, %) ([3]; 0.05 mg/cm^2, 60 min.): 100 ± 0%
- Repellency (mean ± SE, %) ([3]; 0.05 mg/cm^2, 90 min.): 98 ± 2.5%
- Repellency (mean ± SE, %) ([3]; 0.05 mg/cm^2, 120 min.): 98 ± 2.5%
- Repellency (mean ± SE, %) ([3]; 0.05 mg/cm^2, 150 min.): 85 ± 2.9%
- Repellency (mean ± SE, %) ([3]; 0.05 mg/cm^2, 180 min.): 83 ± 6.3%
- Repellency (mean ± SE, %) ([3]; 0.05 mg/cm^2, 210 min.): 85 ± 6.5%
- Repellency (mean ± SE, %) ([3]; 0.05 mg/cm^2, 240 min.): 78 ± 4.8%
- Repellency (mean ± SE, %) ([3]; 0.05 mg/cm^2, 270 min.): 70 ± 4.1%
- Repellency (mean ± SE, %) ([3]; 0.05 mg/cm^2, 300 min.): 50 ± 4.1%
- Repellency (mean ± SE, %) ([3]; 0.09 mg/cm^2, 15 min.): 100 ± 0%
- Repellency (mean ± SE, %) ([3]; 0.09 mg/cm^2, 30 min.): 100 ± 0%
- Repellency (mean ± SE, %) ([3]; 0.09 mg/cm^2, 60 min.): 100 ± 0%
- Repellency (mean ± SE, %) ([3]; 0.09 mg/cm^2, 90 min.): 98 ± 2.5%
- Repellency (mean ± SE, %) ([3]; 0.09 mg/cm^2, 120 min.): 100 ± 0%
- Repellency (mean ± SE, %) ([3]; 0.09 mg/cm^2, 150 min.): 100 ± 0%
- Repellency (mean ± SE, %) ([3]; 0.09 mg/cm^2, 180 min.): 100 ± 0%
- Repellency (mean ± SE, %) ([3]; 0.09 mg/cm^2, 210 min.): 98 ± 2.5%
- Repellency (mean ± SE, %) ([3]; 0.09 mg/cm^2, 240 min.): 83 ± 2.5%
- Repellency (mean ± SE, %) ([3]; 0.09 mg/cm^2, 270 min.): 73 ± 6.3%
- Repellency (mean ± SE, %) ([3]; 0.09 mg/cm^2, 300 min.): 65 ± 2.9%

Structure (SMILES): C=CCc1ccc(O)c(OC)c1 [Eugenol, eugenol, reference compound]
- CPT [1]: 10 min
